From ChEMBL document CHEMBL1153961, “Antiproliferative and antimalarial anthraquinones of Scutia myrtina from the Madagascar forest” (Bioorg Med Chem, 2009)

Columns and labels:
Plasmodium falciparum [1] = experiment: Antiplasmodial activity against chloroquine-resistant Plasmodium falciparum FCM29 by SYBR green assay; format: functional, organism-based
A2780 = experiment: Cytotoxicity against human A2780 cells; format: cell-based
[2] = Selectivity index, ratio of IC50 for human A2780 cells to IC50 for Plasmodium falciparum Dd2; format: toxicity, cell-based; conditions: A2780 cells versus Plasmodium falciparum Dd2, read-out: Ratio IC50
[3] = Selectivity index, ratio of IC50 for human A2780 cells to IC50 for Plasmodium falciparum FCM29; format: toxicity, cell-based; conditions: A2780 cells versus Plasmodium falciparum FCM29, read-out: Ratio IC50
Plasmodium falciparum [4] = experiment: Antiplasmodial activity against chloroquine-resistant Plasmodium falciparum Dd2 by SYBR green assay; format: functional, organism-based

Structure (SMILES)	IC50 (Plasmodium falciparum [1]) [µM]	IC50 (A2780) [µM]	selectivity ratio [2]	selectivity ratio [3]	IC50 (Plasmodium falciparum [4]) [µM]
COC(=O)c1c(O)cc2c(c1C)C(=O)c1c(ccc(C3(O)c4cccc(O)c4C(=O)c4c3cc(O)c(C(=O)OC)c4C)c1O)C2=O (stereo unspecified) [SCUTIANTHRAQUINONE C]	15.4	> 16	> 5	> 1	3.14
COC(=O)c1c(O)cc2c(c1C)C(=O)c1c(O)cccc1C2=O [ALOESAPONARIN I]	77.6	> 32	> 5.7		5.58
CC(=O)O[C@H]1C(=O)[C@@]2(C)[C@H]([C@H](OC(=O)c3ccccc3)[C@]3(O)C[C@H](OC(=O)[C@H](O)[C@@H](NC(=O)c4ccccc4)c4ccccc4)C(C)=C1C3(C)C)[C@]1(OC(C)=O)CO[C@@H]1C[C@@H]2O [PACLITAXEL]		0.014			
COC(=O)c1c(O)cc2c(c1C)C(=O)c1c(ccc(C3(OC(=O)C(C)C)c4cccc(O)c4C(=O)c4c3cc(O)c(C(=O)OC)c4C)c1O)C2=O (stereo unspecified) [SCUTIANTHRAQUINONE B]	5.4	5.8	5.1	1.1	1.14
C=C[C@H]1CN2CC[C@H]1C[C@H]2[C@H](O)c1ccnc2ccc(OC)cc12 [QUININE]	0.22				
CCC(C)C(=O)OC1(c2ccc3c(c2O)C(=O)c2c(cc(O)c(C(=O)OC)c2C)C3(OC(=O)C(C)CC)c2ccc3c(c2O)C(=O)c2c(cc(O)c(C(=O)OC)c2C)C3=O)c2cccc(O)c2C(=O)c2c1cc(O)c(C(=O)OC)c2C (stereo unspecified) [SCUTIANTHRAQUINONE D]	5.6	4.3	1.2	0.8	3.68
CCC(C)C(=O)OC1(c2ccc3c(c2O)C(=O)c2c(cc(O)c(C(=O)OC)c2C)C3=O)c2cccc(O)c2C(=O)c2c1cc(O)c(C(=O)OC)c2C (stereo unspecified) [SCUTIANTHRAQUINONE A]	1.2	7.6	6.1	6.3	1.23
